Test in all cases: ≥ marks a high value that may be exact or a test limit, other limits are often not marked, values filed in µg/mL are converted to µM
For assay [1], the system named is Pseudomonas aeruginosa ATCC 27853.
For assay [2], the system named is Bacillus subtilis ICTA-07.
Assay [3] relates to Acinetobacter calcoaceticus ATCC 2305-5.
Assay [4] relates to Yersinia enterocolitica ATCC 9610.
Assay [5] deals with Micrococcus luteus ATCC 4698.
Assay [6] deals with Enterococcus faecalis WHO 14.
Assay [7] relates to Escherichia coli NIHJ JC-2.
In assay [8] the test system is Bacillus subtilis PCI 219.
For assay [9], the system named is Pseudomonas aeruginosa U-31.
In assay [10] the test system is Staphylococcus aureus FDA 209P.
Assay [11] has as its system Escherichia coli K91BK.
Assay [12] relates to Bacillus subtilis var. niger ATCC 9372.
The subject of assay [13] is Bacillus anthracis Sterne 34F2.
The test system of assay [14] is Escherichia coli ATCC 33694.
For assay [15], the system named is Bacillus subtilis KCTC 1918.
Assay [16] relates to Staphylococcus aureus 1870.
Assay [17] has as its system Acinetobacter baumannii.
The subject of assay [18] is Salmonella typhimurium KCTC 1926.
Assay [19] relates to Trichosporon beigelii KCTC 7707.
For assay [20], the system named is Campylobacter coli.
In assay [21] the test system is Acinetobacter baumannii KCTC 2508.
Assay [22] relates to Bacillus subtilis ATCC 6633.
The subject of assay [23] is Escherichia coli KCTC 1682.
Assay [24] concerns Campylobacter lari.
For assay [25], the system named is Staphylococcus aureus 4716.
Assay [26] relates to Streptococcus pyogenes KCTC 3096.
Assay [27] has as its system Candida albicans TIMM 1768.
In assay [28] the test system is Pseudomonas aeruginosa 3552.
Assay [29] has as its system Pseudomonas aeruginosa KCTC 1637.
Assay [30] concerns Campylobacter jejuni.
Assay [31] deals with Staphylococcus aureus KCTC 1621.
For assay [32], the system named is Staphylococcus epidermidis KCTC 3096.
Assay [33] relates to Staphylococcus aureus 3551.
Assay [34] relates to Carnobacterium mobile.
Assay [35] deals with Fusarium oxysporum.
In assay [36] the test system is Proteus vulgaris.
The test system of assay [37] is Bacillus megaterium KCTC 1096.

Each structure is given as a SMILES string. In brackets after ≈: the same amount, converted by molar mass. Several values for one entry are separate records, joined by “and”; a condition that tells them apart may be missing. Equal values may be shown once.

The MIC is the smallest concentration in the dilution series that meets the test's criterion for growth inhibition. Consider `CSCC[C@@H]1NC(=O)[C@H](Cc2c[nH]c3ccccc23)NC(=O)[C@H](C)NC(=O)[C@H](Cc2ccc(O)cc2)NC(=O)[C@@H]2CSSC[C@@H]3NC(=O)[C@H](CO)NC(=O)[C@H](Cc4ccc(O)cc4)NC(=O)[C@H](CCCCN)NC(=O)[C@@H](NC(=O)CNC(=O)[C@H](CC(=O)O)NC(=O)[C@H](CC(N)=O)NC(=O)CNC(=O)[C@@H](NC(=O)[C@H](CC(C)C)NC(=O)[C@H](Cc4ccc(O)cc4)NC(=O)CNC(=O)[C@H](CC(=O)O)NC(=O)[C@@H](N)CCCCN)C(C)C)CSSC[C@@H](C(=O)NCC(=O)N[C@@H](CCCN=C(N)N)C(N)=O)NC(=O)[C@H](CCCN=C(N)N)NC(=O)[C@H](CC(N)=O)NC(=O)[C@H]([C@@H](C)O)NC(=O)[C@H](C)NC(=O)[C@H](CCCN=C(N)N)NC(=O)[C@H](CC(N)=O)NC(=O)[C@H](Cc4c[nH]c5ccccc45)NC(=O)[C@H]([C@@H](C)O)NC(=O)[C@H](CCCCN)NC(=O)[C@H](C(C)C)NC(=O)[C@H](Cc4c[nH]c5ccccc45)NC(=O)[C@H](CC(N)=O)NC(=O)[C@@H]4CCCN4C(=O)[C@H](CCSC)NC(=O)[C@H](CO)NC(=O)[C@H](Cc4ccc(O)cc4)NC(=O)[C@@H]4CSSC[C@H](NC(=O)[C@H](CCC(=O)O)NC(=O)[C@H](CC(N)=O)NC(=O)[C@H](C)NC(=O)[C@H](CSSC[C@H](NC(=O)[C@H](C)NC1=O)C(=O)N[C@@H](Cc1ccc(O)cc1)C(=O)N4)NC(=O)[C@H](Cc1ccc(O)cc1)NC(=O)[C@H]([C@@H](C)O)NC(=O)CNC(=O)[C@@H]1CCCN1C(=O)[C@H](CCCN=C(N)N)NC(=O)[C@H]([C@@H](C)O)NC(=O)[C@H](Cc1ccccc1)NC3=O)C(=O)N[C@@H](CO)C(=O)N[C@@H](CCCN=C(N)N)C(=O)N[C@@H](C(C)C)C(=O)N[C@@H](CCCCN)C(=O)NCC(=O)N[C@@H](CCCCN)C(=O)N[C@@H](CC(=O)O)C(=O)NCC(=O)N[C@@H](Cc1ccc(O)cc1)C(=O)N2` [KDGYLVGNDGCKYSCFTRPGTYCANECSRVKGKDGYCYAWMACYCYSMPNWVKTWNRATNRCGR], for which the MIC in assay [1] is 54 µM (≈ 398 µg/mL); in assay [2] it was 30 µM (≈ 221 µg/mL); in assay [3] it was 27 µM (≈ 199 µg/mL); in assay [4] it was at least 46 µM; in assay [5], 27 µM (≈ 199 µg/mL); in [6], at least 65 µM.
Take `CC(C)C[C@H](NC(=O)[C@H](CC(C)C)NC(=O)[C@H](CC(C)C)NC(=O)[C@H](CCCCN)NC(=O)[C@H](CC(C)C)NC(=O)[C@H](CC(C)C)NC(=O)[C@H](CCCCN)NC(=O)[C@H](CC(C)C)NC(=O)[C@H](Cc1c[nH]c2ccccc12)NC(=O)[C@H](CC(C)C)NC(=O)[C@H](CCCCN)NC(=O)[C@H](CC(C)C)NC(=O)[C@H](CC(C)C)NC(=O)[C@H](CC(C)C)NC(=O)[C@H](CCCCN)NC(=O)[C@H](CC(C)C)NC(=O)[C@H](CC(C)C)NC(=O)[C@@H](N)CCCCN)C(=O)O` [KLLKLLLKLWLKLLKLLL]: the MIC in [7], in assay [8], in [9] and in assay [10] was at least 45.4 µM each time.
In the case of `CC(=O)N[C@@H](CCCCN)C(=O)N[C@@H](Cc1c[nH]c2ccccc12)C(=O)N[C@@H](CCCCN)C(=O)N[C@@H](CCCCN)C(=O)N[C@@H](CC(C)C)C(=O)N1CCC[C@H]1C(=O)N[C@@H](CCCCN)C(=O)N[C@@H](CCCCN)C(=O)N[C@@H](CC(C)C)C(=O)N[C@@H](CC(C)C)C(=O)N[C@@H](CCCCN)C(=O)N[C@@H](CC(C)C)C(=O)N[C@@H](CC(C)C)C(N)=O` [KWKKLPKKLLKLL], the figures for the MIC in assay [11], in [12] and in [13] were at least 100 µM, 8.84 µM (≈ 14.8 µg/mL) and at least 100 µM, respectively.
`CC[C@H](C)[C@H](NC(=O)CNC(=O)[C@@H](NC(=O)[C@H](CCCCN)NC(=O)[C@H](CCCCN)NC(=O)[C@H](Cc1ccccc1)NC(=O)[C@H](CC(C)C)NC(=O)[C@H](CCCCN)NC(=O)[C@H](Cc1c[nH]c2ccccc12)NC(=O)[C@@H](N)CCCCN)[C@@H](C)CC)C(=O)NCC(=O)N[C@@H](CCCCN)C(=O)N[C@@H](Cc1ccccc1)C(=O)N[C@@H](CC(C)C)C(=O)N[C@@H](Cc1cnc[nH]1)C(=O)N[C@@H](CO)C(=O)N[C@@H](C)C(=O)N[C@@H](CCCCN)C(=O)N[C@@H](CCCCN)C(=O)N[C@@H](Cc1ccccc1)C(N)=O` [KWKLFKKIGIGKFLHSAKKF]: the MIC was 6.25 µM (≈ 15 µg/mL) in [14]; 0.78 µM (≈ 1.88 µg/mL) in assay [15]; at least 64 µM in [16]; 6.25 µM (≈ 15 µg/mL) in assay [17]; 0.78 µM (≈ 1.88 µg/mL) in assay [18]; 6.25 µM (≈ 15 µg/mL) in [19]. Besides, the MIC stood at 29.4 µM (≈ 70.7 µg/mL) in assay [20]; 12.5 µM (≈ 30.1 µg/mL) in [21]; 1.1 µM (≈ 2.65 µg/mL) in [22]; 3.12 µM (≈ 7.51 µg/mL) in assay [23]; 20.8 µM (≈ 50 µg/mL) in [24]; 4 µM (≈ 9.62 µg/mL) in assay [25]. The MIC in assay [26] is 0.78 µM (≈ 1.88 µg/mL); in [27] it was 12.5 µM (≈ 30.1 µg/mL); in assay [28], 8 µM and 4 µM; in assay [29], 1.56 µM (≈ 3.75 µg/mL); in assay [30], 20.8 µM (≈ 50 µg/mL); in assay [31], 3.12 µM (≈ 7.51 µg/mL). In addition, the MIC turned out to be 2.21 µM (≈ 5.3 µg/mL) in assay [32] and 1 µM (≈ 2.4 µg/mL) in assay [33].
Regarding `CSCC[C@H](N)C(=O)N[C@@H](C)C(=O)N[C@@H](CO)C(=O)N[C@@H](CCCN=C(N)N)C(=O)N[C@@H](C)C(=O)N[C@@H](C)C(=O)NCC(=O)N[C@@H](CC(C)C)C(=O)N[C@@H](C)C(=O)N[C@@H](C)C(=O)N[C@@H](CCCN=C(N)N)C(=O)N[C@@H](CC(C)C)C(=O)N[C@@H](C)C(=O)N[C@@H](CCCN=C(N)N)C(=O)N[C@@H](CC(C)C)C(=O)N[C@@H](C)C(=O)N[C@@H](CC(C)C)C(=O)N[C@@H](CCCN=C(N)N)C(=O)N[C@@H](C)C(=O)N[C@@H](CC(C)C)C(=O)O` [MASRAAGLAARLARLALRAL], the MIC is 0.05 µM (≈ 0.103 µg/mL) in [34] and 1 µM (≈ 2.05 µg/mL) in assay [35].
With `CC[C@H](C)[C@H](NC(=O)[C@H](CCCCN)NC(=O)[C@H](CCCCN)NC(=O)[C@@H](N)Cc1c[nH]c2ccccc12)C(=O)N1CCC[C@H]1C(=O)N[C@@H](CCCCN)C(=O)N[C@@H](Cc1ccccc1)C(=O)N[C@@H](CC(C)C)C(=O)N[C@@H](Cc1cnc[nH]1)C(=O)N[C@@H](CC(C)C)C(=O)N[C@@H](CC(C)C)C(=O)N[C@@H](CCCCN)C(=O)N[C@@H](CCCCN)C(=O)N[C@@H](Cc1ccccc1)C(N)=O` [WKKIPKFLHLLKKF], the MIC is 0.78 µM (≈ 1.42 µg/mL) in assay [15]; 6.25 µM (≈ 11.4 µg/mL) in assay [23]; 12.5 µM (≈ 22.8 µg/mL) in assay [36]; 1.56 µM (≈ 2.85 µg/mL) in assay [37]; 3.12 µM (≈ 5.7 µg/mL) in assay [29]; 3.12 µM (≈ 5.7 µg/mL) in [31].

Source of the values: DBAASP.
